In one data set the test system is HT29. The format is cell-based, human. The conditions noted are these: 10^Δ2-x, relative to compound 2.
In a further data set the test system is TK-10. Type of data set: cell-based, human. The note with it: 10^Δ2-x, relative to compound 2.
The subject of a further data set is SN12C. Type of data set: cell-based, human. The note with it: 10^Δ2-x, relative to compound 2.
For another data set, the system named is HCC-2998. The format is cell-based, human. The note with it: 10^Δ2-x, relative to compound 2.
The test system of another data set is MDA-MB-231/ATCC. The format is cell-based, human. The conditions noted are these: 10^Δ2-x, relative to compound 2.
Data set [1] in a line: Assays of toxicity, maximum tolerated dose. The note with it: in vivo.
For the next data set, the system named is RPMI-8226. The format is cell-based, human. The conditions noted are these: 10^Δ2-x, relative to compound 2.
Another data set concerns HS578T. Type of data set: cell-based, human. The conditions noted are these: 10^Δ2-x, relative to compound 2.
The subject of the next data set is KM12. Type of data set: cell-based, human. The note with it: 10^Δ2-x, relative to compound 2.
A further data set relates to K-562. Type of data set: cell-based, human. The conditions noted are these: 10^Δ2-x, relative to compound 2.
The next data set relates to OVCAR-5. Type of data set: cell-based, human. The note with it: 10^Δ2-x, relative to compound 2.
The subject of a further data set is SK-MEL-2 melanoma cells. In words: Subcutaneous SK-MEL-2 melanoma xenograft. Type of data set: in vivo, athymic nu/nu mice. The note with it: iv q2dx10 at 10 mg/Kg and q3dx10 at 20 mg/Kg.
The subject of another data set is NCI-H460. Type of data set: cell-based, human. The conditions noted are these: 10^Δ2-x, relative to compound 2.
In another data set the test system is DU-145. Type of data set: cell-based, human. The conditions noted are these: 10^Δ2-x, relative to compound 2.
For data set [2], the system named is panel of 12 tumor cell lines implanted in mice. In words: NCI hollow fiber assay. The format is in vivo.
In a further data set the test system is 786-0. The format is cell-based, human. The note with it: 10^Δ2-x, relative to compound 2.

As to `CO[C@@H]([C@@H]1Cc2cc3cc(O[C@H]4C[C@@H](O[C@H]5C[C@@H](O)[C@H](O)[C@@H](C)O5)[C@H](O)[C@@H](C)O4)c(C)c(O)c3c(O)c2C(=O)[C@H]1O[C@H]1C[C@@H](O[C@H]2C[C@@H](O[C@H]3C[C@H](O)[C@H](O)[C@@H](C)O3)[C@H](O)[C@@H](C)O2)[C@H](O)[C@@H](C)O1)[C@@H](O)C(C)=O` [Compound 9, demycarosyl-3D-β-D-digitoxosyl-mithramycin SK], the activity improvement factor was 3.55 in the data set on HT29; 2.45 with TK-10; 1.70 in the data set with SN12C; 3.76 with HCC-2998; 2.75 in the data set on MDA-MB-231/ATCC; 0.73 in the data set on RPMI-8226. Moreover, the activity improvement factor with HS578T is given as 1.76; with KM12 it was 1.66; in the data set with K-562 it was 1.40; in the data set with OVCAR-5, 1.97; in the data set on NCI-H460, 1.19; in the data set with DU-145, 4.47. Moreover, the activity improvement factor with 786-0 stood at 1.88. Besides, the “fold less toxicity than parental compound 1, single treatment” value in data set [1] was “about 32 fold”. In the data set with SK-MEL-2 melanoma cells, the “growth of SK-MEL-2 human melanoma xenografts” value is recorded as “markedly delayed”. For the same molecule, the “hollow fiber assay total score” value in data set [2] (12 tumor cell lines, daily ip for four days) is 66/96. In [2] (intraperitoneal implants), the “hollow fiber assay intraperitoneal score” value is reported as 36/48. Further, in data set [2] (subcutaneous implants), the “hollow fiber assay subcutaneous score” value is recorded as 30/48.

(Values after PMC3395220 (Journal of Medicinal Chemistry, 2012).)
